Test [1] has as its target T1, amyloid β-protein (human, 1-40) (Homo sapiens, UniProt P05067). Put plainly: Effect of drugs on the amyloid formation of amyloid β-protein (Thioflavine T method). In kind it is biochemical. The note with it: read-out: IC50 value (50% inhibition concentration of amyloid formation). The method, then:
Thereafter, the quantity of amyloid formation was measured by the Thioflavine T method (Naiki et al., Lab Invest, 65, 104-110, 1991). The measured value was converted to a relative value (%) based on the quantity of amyloid formation in the drug-non-added control group, and then 50% inhibition concentration (IC50 value) of amyloid formation was calculated.

Test [2] addresses T1, amyloid β-protein (human, 1-40). Put plainly: Effect on amyloid formation of various amyloid forming proteins (Thioflavine T method): Aβ1-40. As to conditions: Aβ1-40 10 μM, PBS(−), room temperature, sampled next day; read-out: IC50 (50% inhibition concentration of amyloid formation), Aβ1-40. The format is biochemical.
For test [3], the target named is partial fragment of prion protein (PrP 118-135) (Homo sapiens, UniProt P04156). The test is described as follows: biochemical.
Test [4] has as its target Amyloid β-protein (human, 1-42) (Homo sapiens, UniProt P05067). Put plainly: Effect on amyloid formation of various amyloid forming proteins (Thioflavine T method): Aβ1-42. The format is biochemical. As to conditions: Aβ1-42 10 μM, PBS(−), room temperature, sampled next day; read-out: IC50 (50% inhibition concentration of amyloid formation), Aβ1-42.
In test [5] the target is T2, Amyrin (Homo sapiens, UniProt P10997).
T2 construct: Amyrin (10 μM; purchased from Bachem), as an amyloid forming protein; purchased Bachem
T2 sequence (P10997 34-70 limits assumed): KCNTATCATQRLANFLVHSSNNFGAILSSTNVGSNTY
The test is described as follows: Effect on amyloid formation of various amyloid forming proteins (Thioflavine T method): Amyrin. In kind it is biochemical. The note with it: Amyrin 10 μM, PBS(−), room temperature, sampled next day; read-out: IC50 (50% inhibition concentration of amyloid formation), Amyrin.

Test [6] relates to amyloid (senile plaque) in human Alzheimer disease brain sections. The test is described as follows: Specific binding to amyloid in Alzheimer disease brain sections (fluorescence microscopy). As to conditions: 50 μM in TBS, formalin-fixed human Alzheimer disease brain sections, fluorescence microscope. The method, then: Specific Binding to Amyloid
The compound of Example 21 having fluorescence was dissolved in TBS at a concentration of 50 μM and incubated with formalin-fixed human Alzheimer disease brain sections (purchased from BioChain). Thereafter, the sections were washed with saturated lithium carbonate/40% ethanol, dried and then observed under a fluorescence microscope.
Thus, it was shown that the compound of the present invention can specifically bind to amyloid in the Alzheimer brain.

The mark [7] stands for this setting: 15 μM amyloid β-protein (human, 1-40), PBS(−), room temperature, 1 day, drug 1.6, 8 or 40 μM.

Structures are written as SMILES.

T1 sequence (P05067 18-40): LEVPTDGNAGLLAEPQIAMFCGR
Amyloid β-protein (human, 1-42), sequence (P05067 18-42): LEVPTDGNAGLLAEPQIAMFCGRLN

For the compound `Nc1c(/N=N/c2ccc(-c3ccc(/N=N/c4cc(S(=O)(=O)O)c5ccccc5c4N)cc3)cc2)cc(S(=O)(=O)O)c2ccccc12` [Congo Red, Congo red, reference compound], the IC50 in test [1] (setting [7]) turned out to be 870 nM.
As to `CC(=C(C#N)C#N)c1ccc2cc(N(C)C)ccc2c1` [DDNP], the IC50 in test [1] amounted to 3230 nM.
For the compound `C(=NNc1ccc(-c2cnco2)cc1)c1ccncc1` [Example 3, 4-Pyridinecarboxyaldehyde 4-(oxazol-5-yl)phenylhydrazone], the IC50 in test [2] turned out to be 1160 nM; in test [1] (setting [7]), 2940 nM; in test [3] it was 1970 nM; in test [4], 700 nM; in test [5], 2080 nM.
Consider `Cc1ccc2nc(-c3ccc(N/N=C/c4ccncc4)cc3)sc2c1` [Example 21, 4-Pyridinecarboxyaldehyde 4-(6-methylbenzothiazol-2-yl)phenylhydrazone], for which the “Fluorescence binding to amyloid in brain sections” value in test [6] was “accumulation of fluorescence was found in the senile plaque”.

The values above are taken from patent US20060276433A1, “Hydrazone derivative” (priority 2003, published 2006).
